In US8759512B2, “Methods of preparation of macrocyclic compounds” (University of Florida Research Foundation, Inc., priority 2008, dated 2014):

Experiments:
NIH3T3 cells = type: cell-based; conditions: NIH3T3, 48 h, MTT
Method: Cell culture medium was purchased from Invitrogen and fetal bovine serum (FBS) from Hyclone. Cells were propagated and maintained in DMEM medium (high glucose) supplemented with 10% FBS at 37° C. humidified air and 5% CO2.
Cells suspended in DMEM containing 10% FBS were plated in 96-well plates (MDA-MB-231: 12,000 cells; NMuMG: 5,000 cells; U2OS: 5,000 cells; HT29: 10,000 cells; IMR-32: 30,000 cells; NIH3T3: 5,000 cells) incubated (37° C., 5% CO2) and 24 h later treated with various concentrations of compound 21 or solvent control (1% EtOH). After another 48 h of incubation, cell viability was measured using MTT according to manufacturer's instructions (Promega).
MDA-MB-231 and NMuMG cells were also treated with paclitaxel (in DMSO), actinomycin D (in DMSO) and doxorubicin (in H2O) and corresponding solvent control (1%) in the same manner. GI50 and LC50 values were calculated as previously described (K. D. Paull, E. Hamel, L. Malspeis, In Cancer Chemotherapeutic Agents, W. E. Foye, Ed., American Chemical Society, Washington, D.C., 1995, pp. 10-11).
[formula] [T=absorbance in treated wells (48 h); T0=absorbance at time zero; C=absorbance in control wells (48 h)]

[1] = system: HeLa nuclear extract HDACs (class I HDACs 1, 2, and 3); test: HeLa nuclear extract HDAC inhibition; type: biochemical; conditions: HeLa cell nuclear protein extract
Text: Largazole (21) inhibited HDAC activity from a HeLa cell nuclear protein extract rich in class I HDACs 1, 2, and 3 (BIOMOL); however, it is possible that the thioester is cleaved under assay conditions. To investigate that thiol 29 is a reactive species, we liberated 29 from the acetyl analog 28 of largazole (21) and measured enzymatic activity directly; thiol […] inhibited the HDACs in the nuclear extract of HeLa cells with a similar IC50 value (Table 3).

HDAC = test: HCT-116 HDAC cellular assay (Fluor de Lys substrate); type: cell-based; conditions: HCT-116, 8 h, fluorogenic HDAC substrate
HCT-116 cells = test: HCT-116 growth inhibition; type: cell-based

| Compound | toxicity (cytotoxicity) (NIH3T3 cells) | IC50 [1] [nM] | IC50 (HDAC) [nM] | GI50 (HCT-116 cells) [nM] |
| --- | --- | --- | --- | --- |
| CCCCCCCC(=O)SCC/C=C/[C@@H]1CC(=O)NCc2nc(cs2)C2=N[C@@](C)(CS2)C(=O)N[C@@H](C(C)C)C(=O)O1 [Compound 21, Largazole] | no apparent toxicity |  |  |  |
| CC(=O)SCC/C=C/[C@@H]1CC(=O)NCc2nc(cs2)C2=N[C@@](C)(CS2)C(=O)N[C@@H](C(C)C)C(=O)O1 [Compound 28] |  | 52 ± 27 | 50 ± 18 | 33 ± 2 |
